In ChEMBL document CHEMBL4808180, “Identification of 2,2-Dimethylbutanoic Acid (HST5040), a Clinical Development Candidate for the Treatment of Propionic Acidemia and Methylmalonic Acidemia” (J Med Chem, 2021):
pEC50: −log10 of the molar value.

Key:
[1] = Reduction of 2-Methylcitric acid in human hepatocytes derived from propionic acidemia patient at 30 uM pretreated for 30 mins followed by 13C-isoleucine addition and measured after 1 hr by MS/MS analysis relative to control; type: functional, Hepatocyte; set-up: scale not given: the % may be the effect or the level left; conditions: time 90 min, 1.5 h
[2] = Reduction of 2-Methylcitric acid in human hepatocytes derived from methylmalonic acidemia patient pretreated for 30 mins followed by 13C-isoleucine addition and measured after 1 hr by MS/MS analysis; type: functional, cell-based; conditions: hepatocyte
[3] = Reduction of acetyl-CoA in human hepatocytes derived from propionic acidemia patient at 30 uM pretreated for 30 mins followed by 13C-isoleucine addition and measured after 1 hr by MS/MS analysis relative to control; type: functional, Hepatocyte; set-up: scale not given: the % may be the effect or the level left; conditions: time 90 min, 1.5 h
[4] = Reduction of CoASH in human hepatocytes derived from propionic acidemia patient pretreated for 30 mins followed by 13C-isoleucine addition and measured after 1 hr by MS/MS analysis; type: functional, cell-based; conditions: hepatocyte
[5] = Reduction of CoASH in human hepatocytes derived from propionic acidemia patient at 30 uM pretreated for 30 mins followed by 13C-isoleucine addition and measured after 1 hr by MS/MS analysis relative to control; type: functional, Hepatocyte; set-up: scale not given: the % may be the effect or the level left; conditions: time 90 min, 1.5 h
[6] = Drug metabolism in human hepatocytes derived from methylmalonic acidemia patient assessed as formation of 2,2-dimethylbutanoic acid-CoA pretreated for 30 mins followed by 13C-isoleucine addition and measured after 1 hr by MS/MS analysis relative to control; type: ADME, cell-based; conditions: Hepatocyte
[7] = molecular target: T1, Multidrug and toxin extrusion protein 2 (Homo sapiens, UniProt Q86VL8); experiment: Inhibition of human MATE2K assessed as reduction in MATE2K-mediated metformin transport at 14900 uM relative to control
T1 sequence (Q86VL8 whole entry): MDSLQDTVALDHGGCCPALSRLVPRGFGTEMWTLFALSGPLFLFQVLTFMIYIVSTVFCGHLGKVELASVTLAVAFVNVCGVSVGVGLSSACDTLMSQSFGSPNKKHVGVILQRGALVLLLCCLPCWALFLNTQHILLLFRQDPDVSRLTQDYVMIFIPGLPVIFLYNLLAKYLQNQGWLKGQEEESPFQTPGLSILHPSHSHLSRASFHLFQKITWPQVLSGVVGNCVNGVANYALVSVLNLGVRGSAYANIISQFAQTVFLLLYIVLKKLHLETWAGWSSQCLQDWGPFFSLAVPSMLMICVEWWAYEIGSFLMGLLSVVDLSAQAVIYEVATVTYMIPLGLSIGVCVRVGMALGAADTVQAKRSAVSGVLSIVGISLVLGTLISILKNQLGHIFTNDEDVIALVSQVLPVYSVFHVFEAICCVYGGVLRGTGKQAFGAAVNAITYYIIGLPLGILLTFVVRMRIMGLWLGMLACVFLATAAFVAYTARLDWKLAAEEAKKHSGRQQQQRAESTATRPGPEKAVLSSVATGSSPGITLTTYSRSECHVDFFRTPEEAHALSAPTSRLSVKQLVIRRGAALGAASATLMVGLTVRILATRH

[8] = Half life in CD1 mouse at 30 mg/kg, iv; type: ADME, organism-based; conditions: in vivo
[9] = Half life in Sprague-Dawley rat at 200 mg/kg, po; type: ADME, organism-based; conditions: in vivo
[10] = AUC (0 to infinity) in Sprague-Dawley rat at 10 mg/kg, iv; type: ADME, organism-based; set-up: route intravenous, time infinity, dose 10 mg/kg; conditions: in vivo
[11] = Drug excretion in Sprague-Dawley rat urine at 10 mg/kg, po using radiolabeled compound measured at 1 hr post dose; type: ADME, organism-based; conditions: in vivo
[12] = AUC (0 to infinity) in Gottingen minipig at 10 mg/kg, po using radiolabeled compound by quantitative whole-body autoradiography; type: ADME, organism-based, Sus scrofa domesticus; set-up: time infinity, route oral, dose 10 mg/kg; conditions: pig, in vivo
[13] = Drug level in Gottingen minipig blood at 10 mg/kg, po using radiolabeled compound measured after 72 hrs by quantitative whole-body autoradiography; type: ADME, organism-based, Sus scrofa domesticus; conditions: pig, in vivo, BLD = below limit of detection
Hepatocyte = experiment: Cytotoxicity against minipig hepatocytes assessed as reduction in cell viability using radiolabeled compound; type: cell-based, Sus scrofa domesticus; conditions: pig
[14] = Stability in minipig hepatocytes assessed as unchanged compound at 50 uM measured after 4 hrs; type: ADME, cell-based, Sus scrofa domesticus, Hepatocyte; conditions: pig, read-out: Stabilty
[15] = Drug metabolism in Sprague-Dawley rat feces assessed as HST5040-glucuronide metabolite formation at 10 mg/kg administered as single dose by LC/MS analysis; type: ADME, organism-based; conditions: in vivo
[16] = Drug metabolism in Gottingen minipig plasma assessed as HST5040-glucuronide metabolite formation at 10 mg/kg administered as single dose by LC/MS analysis; type: ADME, organism-based, Sus scrofa domesticus; conditions: pig, in vivo
[17] = Drug metabolism in Gottingen minipig plasma assessed as HST5040-carnitine metabolite formation at 10 mg/kg administered as single dose by LC/MS analysis; type: ADME, organism-based, Sus scrofa domesticus; conditions: pig, in vivo
[18] = Drug metabolism in human hepatocytes assessed as beta-oxidation by measuring phase1 metabolite formation at 50 uM measured after 4 hrs; type: ADME, cell-based, Hepatocyte
Cytochrome P450 2B6 = molecular target: T2, Cytochrome P450 2B6 (Homo sapiens, UniProt P20813); experiment: Time-dependent inhibition of CYP2B6 in human liver microsomes using bupropion as substrate preincubated for 30 mins; type: ADME
T2 sequence (P20813 whole entry): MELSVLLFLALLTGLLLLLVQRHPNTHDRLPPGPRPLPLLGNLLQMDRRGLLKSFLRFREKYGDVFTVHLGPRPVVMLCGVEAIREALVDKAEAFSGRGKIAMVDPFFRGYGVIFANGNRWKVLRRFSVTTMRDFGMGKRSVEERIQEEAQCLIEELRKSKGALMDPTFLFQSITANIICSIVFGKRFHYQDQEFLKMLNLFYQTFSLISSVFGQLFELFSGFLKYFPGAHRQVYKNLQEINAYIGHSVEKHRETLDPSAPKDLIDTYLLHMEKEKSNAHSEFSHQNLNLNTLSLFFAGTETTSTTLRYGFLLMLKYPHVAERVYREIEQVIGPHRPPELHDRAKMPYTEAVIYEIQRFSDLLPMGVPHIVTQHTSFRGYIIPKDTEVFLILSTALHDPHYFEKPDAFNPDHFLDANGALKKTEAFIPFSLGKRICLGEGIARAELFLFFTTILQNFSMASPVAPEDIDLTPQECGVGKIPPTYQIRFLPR

[19] = Induction of toxicity in minipig assessed as increase in vacuole size in the epithelial cells of renal tubules at >=50 mg/kg; type: organism-based, Sus scrofa domesticus; conditions: pig, in vivo
[20] = Drug metabolism in minipig assessed as beta-oxidation by measuring phase1 metabolite formation at 10 mg/kg administered single dose using radiolabeled compound; type: ADME, organism-based, Sus scrofa domesticus; conditions: pig, in vivo

Work on `CCC(C)(C)C(=O)O` [DIMEBUTIC ACID] yielded an Activity [1] of -78.6%, a pEC50 [2] of 6.10 and an Activity [3] of 54%. For the same compound, the pEC50 [4] was 4.94, the Activity [5] was -31.3% and the pEC50 [6] was 5.46. The “inhibition (INH)” value [7] was “Not Active”, the half-life [8] was 0.831 h and the half-life [9] was 2.73 h. It also gave an AUC(0-inf) [10] of 9670 ng·h/mL, a Drug excretion [11] of 72% and an AUC [12] of 91300 ng·h/mL. For the same compound, the Drug uptake [13] was “Bld”, the Activity (Hepatocyte) was “Non-Toxic” and the remaining at 4 h, 50 µM [14] was 86%. The Drug metabolism [15] was “Metabolite_Detected”, the Drug metabolism [16] was “Metabolite_Detected” and the Drug metabolism [17] was “Metabolite_Detected”. For the same compound, the Drug metabolism [18] was “Metabolite_Notdetected”, the IC50 (Cytochrome P450 2B6) was > 10000 µM and the Activity [19] was “Toxic”. For the same compound, the Drug metabolism [20] was “Metabolite_Notdetected”.
